# Data: patent US11254690B2, “PTEFb inhibiting macrocyclic compounds” (BAYER AKTIENGESELLSCHAFT, priority 2017, dated 2022)
# Assays:
# [1] = biological target: T1, human PTEFb (CDK9/Cyclin T1) (Homo sapiens, UniProt P50750); experiment: Surface Plasmon Resonance PTEFb; type: binding; settings: SPR, 37° C.
# T1 construct: purchased ProQinase, Freiburg, Germany
# Description: 8. Surface Plasmon Resonance PTEFb
# The term “surface plasmon resonance”, as used herein, refers to an optical phenomenon that allows for the analysis of the reversible associations of biological molecules in real time within a biosensor matrix, for example using the Biacore® system (GE Healthcare Biosciences, Uppsala, Sweden). Biacore® uses the optical properties of surface plasmon resonance (SPR) to detect alterations in the refractive index of a buffer, which changes as molecules in solution interact with the target immobilized on the surface. In brief, proteins are covalently bound to the dextran matrix at a known concentration and a ligand for the protein is injected through the dextran matrix. Near infrared light, directed onto the opposite side of the sensor chip surface is reflected and also induces an evanescent wave in the gold film, which in turn, causes an intensity dip in the reflected light at a particular angle known as the resonance angle. If the refractive index of the sensor chip surface is altered (e.g. by compound binding to the bound protein) a shift occurs in the resonance angle. This angle shift can be measured.
# The term “KD”, as used herein, is intended to refer to the equilibrium dissociation constant of a particular compound/target protein complex.
# The term “koff”, as used herein, is intended to refer to the off-rate, i.e. the dissociation rate constant of a particular compound/target protein complex.
# The term “target residence time”, as used herein, is intended to refer to the inverse of the rate of dissociation rate constant (1/koff) of a particular compound/target protein complex.
# The ability of the compounds according to the invention to bind human PTEFb may be determined using surface plasmon resonance (SPR). KD values and koff values may be measured using a Biacore® T200 instrument (GE Healthcare, Uppsala, Sweden).
# For SPR measurements, recombinant human PTEFb (CDK9/Cyclin T1 recombinant human active protein kinase purchased from ProQinase, Freiburg, Germany) is immobilized using standard amine coupling (Johnsson B et al, Anal Biochem. 1991 Nov. 1; 198(2):268-77). Briefly, carboxymethylated dextran biosensor chips (CM7, GE Healthcare) are activated with N-ethyl-N′-(3-dimethylaminopropyl)-carbodiimide hydrochloride (EDC) and N-hydroxysuccinimide (NHS) according to the supplier's instructions. Human PTEFb is diluted in 1×HBS-EP+ (GE Healthcare) and injected on the activated chip surface. Subsequently, a 1:1 solution of 1 M ethanolamine-HCl (GE Healthcare) and 1×HBS-EP is injected to block unreacted groups, resulting in approximately 4000 response units (RU) of immobilized protein. A reference surface is generated by treatment with NHS-EDC and ethanolamine-HCl. Compounds are dissolved in 100% dimethylsulfoxide (DMSO, Sigma-Aldrich, Germany) to a concentration of 10 mM and subsequently diluted in running buffer (1×HBS-EP+pH 7.4 [generated from HBS-EP+ Buffer 10× (GE Healthcare): 0.1 M HEPES, 1.5 M NaCl, 30 mM EDTA and 0.5% v/v Surfactant P20], 1% v/v DMSO). For kinetic measurements, serial dilutions of compound (0.78 nM up to 25 nM) are injected over immobilized protein. Binding kinetics is measured at 37° C. with a flow rate of 100 μl/min in running buffer. Compound concentrations are injected for 70 s followed by a dissociation time of 1100 s. The resulting sensorgrams are double-referenced against the reference surface as well as against blank injections.
# The double-referenced sensorgrams are fit to a simple reversible Langmuir 1:1 reaction mechanism as implemented in the Biacore® T200 evaluation software 2.0 (GE Healthcare). In cases were full compound dissociation has not occurred at the end of the dissociation phase, the Rmax parameter (response at saturation) is fit as local variable. In all other cases, Rmax is fit as global variable.
# HeLa cells = experiment: Proliferation assay, HeLa; type: cell-based; settings: Homo sapiens, 96 h, 4 days, crystal violet, read-out: Inhibition of HeLa cell proliferation IC50
# Description: Cultivated tumour cells (HeLa, human cervical tumour cells, ATCC CCL-2; NCI-H460, human non-small cell lung carcinoma cells, ATCC HTB-177; DU 145, hormone-independent human prostate carcinoma cells, ATCC HTB-81; HeLa-MaTu-ADR, multidrug-resistant human cervical carcinoma cells, EPO-GmbH Berlin; Caco-2, human colorectal carcinoma cells, ATCC HTB-37; B16F10, mouse melanoma cells, ATCC CRL-6475) were plated at a density of 5,000 cells/well (DU145, HeLa-MaTu-ADR), 3,000 cells/well (NCI-H460, HeLa), 1,500 cells/well (Caco-2), or 1,000 cells/well (B16F10) in a 96-well multititer plate in 200 μL of their respective growth medium supplemented 10% fetal calf serum. After 24 hours, the cells of one plate (zero-point plate) were stained with crystal violet (see below), while the medium of the other plates was supplemented with the test substances in various concentrations (0 μM, as well as in the range of 0.0001-10 μM; the final concentration of the solvent dimethyl sulfoxide was adjusted to 0.1%) using a Hewlett-Packard HP D300 Digital Dispenser. The cells were incubated for 4 days in the presence of test substances. Cell proliferation was determined by staining the cells with crystal violet: the cells were fixed by adding 20 μl/measuring point of an 11% glutaric aldehyde solution for 15 minutes at room temperature. After three washing cycles of the fixed cells with water, the plates were dried at room temperature. The cells were stained by adding 100 μl/measuring point of a 0.1% crystal violet solution (pH 3.0). After three washing cycles of the stained cells with water, the plates were dried at room temperature. The dye was dissolved by adding 100 μl/measuring point of a 10% acetic acid solution. The extinction was determined by photometry at a wavelength of 595 nm. The change of cell number, in percent, was calculated by normalization of the measured values to the extinction values of the zero-point plate (=0%) and the extinction of the untreated ([…]) cells (=100%). The IC50 values (inhibitory concentration at 50% of maximal effect) were determined by means of a 4 parameter fit. A2780 human ovarian carcinoma cells (ECACC #93112519) and non-adherent MOLM-13 human acute myeloid leukemia cells (DSMZ ACC 554) were seeded at a density of 3,000 cell/well (A2780) or 5,000 cells/well (MOLM-13) in a 96-well multititer plate in 150 μL of growth medium supplemented 10% fetal calf serum. After 24 hours, cell viability of one plate (zero-point plate) was determined with the Cell Titre-Glo Luminescent Cell Viability Assay (Promega), while the medium of the other plates was supplemented with the test substances in various concentrations (0 μM, as well as in the range of 0.0001-10 μM; the final concentration of the solvent dimethyl sulfoxide was adjusted to 0.1%) using a Hewlett-Packard HP D300 Digital Dispenser. Cell viability was assessed after 72-hour exposure with the Cell Titre-Glo Luminescent Cell Viability Assay (Promega). IC50 values (inhibitory concentration at 50% of maximal effect) were determined by means of a 4 parameter fit on measurement data which were normalized to vehicle (DMSO) treated cells (=100%) and measurement readings taken immediately before compound exposure (=0%).
# T1 sequence (P50750 whole entry): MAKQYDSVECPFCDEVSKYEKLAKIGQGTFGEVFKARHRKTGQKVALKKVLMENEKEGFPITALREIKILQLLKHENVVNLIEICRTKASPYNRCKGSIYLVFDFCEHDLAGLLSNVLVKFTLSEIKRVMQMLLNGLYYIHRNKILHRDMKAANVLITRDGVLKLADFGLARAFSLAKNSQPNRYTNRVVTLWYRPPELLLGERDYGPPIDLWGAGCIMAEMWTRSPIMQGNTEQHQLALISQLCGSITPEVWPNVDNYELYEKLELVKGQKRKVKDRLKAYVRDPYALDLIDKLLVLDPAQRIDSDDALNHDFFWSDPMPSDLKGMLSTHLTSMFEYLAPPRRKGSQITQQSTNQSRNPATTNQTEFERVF
# T1 sequence (O60563 whole entry partner): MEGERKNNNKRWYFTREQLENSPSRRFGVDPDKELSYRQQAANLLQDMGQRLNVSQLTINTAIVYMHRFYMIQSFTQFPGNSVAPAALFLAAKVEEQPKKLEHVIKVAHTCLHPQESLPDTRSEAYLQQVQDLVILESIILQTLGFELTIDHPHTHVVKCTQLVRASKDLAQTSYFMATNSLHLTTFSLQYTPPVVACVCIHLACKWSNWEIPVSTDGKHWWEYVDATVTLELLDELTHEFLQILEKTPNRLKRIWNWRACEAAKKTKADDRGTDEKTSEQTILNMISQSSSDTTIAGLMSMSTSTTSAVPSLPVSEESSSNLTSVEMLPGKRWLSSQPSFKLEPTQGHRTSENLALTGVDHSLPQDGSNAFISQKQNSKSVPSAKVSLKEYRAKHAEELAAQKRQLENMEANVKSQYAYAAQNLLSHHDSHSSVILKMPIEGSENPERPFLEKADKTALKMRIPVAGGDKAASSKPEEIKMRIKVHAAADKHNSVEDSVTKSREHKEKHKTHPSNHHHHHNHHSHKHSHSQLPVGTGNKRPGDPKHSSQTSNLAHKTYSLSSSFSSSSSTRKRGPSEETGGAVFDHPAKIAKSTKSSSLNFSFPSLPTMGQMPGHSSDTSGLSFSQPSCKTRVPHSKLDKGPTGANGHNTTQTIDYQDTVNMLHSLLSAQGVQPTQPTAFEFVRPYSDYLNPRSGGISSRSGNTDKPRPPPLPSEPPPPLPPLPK
compound,measurement,setting,value
"CS(=N)(=O)Cc1cc2cc(c1)OCCCCOc1cc(ccc1F)-c1nc(ncc1F)N2 (racemic) [Example 4, (rac)-3,20-difluoro-10-[(S-methylsulfonimidoyl)methyl]-13,18-dioxa-5,7,25-triazatetracyclo[17.3.1.1^2,6.1^8,12]pentacosa-1(23),2(25),3,5,8(24),9,11,19,21-nonaene]",residence time,"[1]; 1/koff, * = arithmetic means, read-out: Target residence time",25 min
same,Kd,"[1]; * = arithmetic means of more than one value, read-out: Equilibrium dissociation constant KD",1.2 nM
same,koff,"[1]; * = arithmetic means, < = below what is resolvable, read-out: Dissociation rate constant koff",0.00067 s⁻¹
same,IC50,HeLa cells,150 nM
